Results taken from patent US10835840B2, “Methods for in situ separation of mixtures” (INTERNATIONAL SCIENTIFIC PTY LTD, priority 2015, dated 2020).
“And” between values parts separate entries of the source, which are not always exact repeats. Equal entries are not always repeated. Blank lines part the entries; values can stand above or below the compound they belong to.

Experiments:
[1] = Tape stripping after applying niacinamide gel mixture with or without weak magnetic field (ETP008), mass spectrometry; format: in vivo; design: unit not given here
Description: ETP008—a linear array of displaced dipolar magnetic elements comprising strontium oxides dispersed in a PVC film base. The displaced dipolar magnetic elements were created in parallel with a pole flux of 450 Gauss. Each element or pole was 2.7 mm wide, creating a pair of displaced dipolar magnetic elements of pitch of 1.5 pairs per centimetre. Inter-pair flux gradient was 900 Gauss or 1350 Gauss per centimetre.
An aliquot of the niacinamide mixture was applied to both regions without rubbing. A magnetic film (ETP008) was placed in close proximity (approximately 0.5 mm) above the Active region for 5 minutes.
The Tape strip samples were then analysed for niacinamide using a validated mass spectrometry method.

[2] = in vivo
Experimental: The subject's volar forearm or upper arm was delineated into two 3×3 cm square regions which were designated […]. […] After an absorption period of 30 minutes, the excess mixture was removed from each region by washing with water. The region was then tape stripped using the adapted procedure of Lademann et al (The tape stripping procedure—evaluation of some critical parameters. European Journal of Pharmaceutics and Biopharmaceutics 72 (2009) 317-323).

[3] = Active, Total (6-10) tape strips
[4] = Passive, Total (6-10) tape strips

Niacinamide penetration, Average ([1]; Active (weak magnetic field, ETP008), Tape Strip 1): 2.907
Niacinamide penetration, Average ([1]; Active, Tape Strip 2): 2.036
Niacinamide penetration, Average ([1]; Active, Tape Strip 3): 1.12
Niacinamide penetration, Average ([1]; Active, Tape Strip 4): 0.8796
Niacinamide penetration, Average ([1]; Active, Tape Strip 5): 0.8556
Niacinamide penetration, Average ([1]; Active, Tape Strip 6): 0.7575
Niacinamide penetration, Average ([1]; Active, Tape Strip 7): 0.6674
Niacinamide penetration, Average ([1]; Active, Tape Strip 8): 0.5672
Niacinamide penetration, Average ([1]; Active, Tape Strip 9): 0.4439
Niacinamide penetration, Average ([1]; Active, Tape Strip 10): 0.3798
Niacinamide penetration, Average [1, 3]: 2.816
Niacinamide penetration, Average ([1]; Passive (no weak magnetic field), Tape Strip 1): 2.428
Niacinamide penetration, Average ([1]; Passive, Tape Strip 2): 1.353
Niacinamide penetration, Average ([1]; Passive, Tape Strip 3): 1.193
Niacinamide penetration, Average ([1]; Passive, Tape Strip 4): 0.9603
Niacinamide penetration, Average ([1]; Passive, Tape Strip 5): 0.8282
Niacinamide penetration, Average ([1]; Passive, Tape Strip 6): 0.6176
Niacinamide penetration, Average ([1]; Passive, Tape Strip 7): 0.6112
Niacinamide penetration, Average ([1]; Passive, Tape Strip 8): 0.4614
Niacinamide penetration, Average ([1]; Passive, Tape Strip 9): 0.3664
Niacinamide penetration, Average ([1]; Passive, Tape Strip 10): 0.3966
Niacinamide penetration, Average [1, 4]: 2.453
Compound: NC(=O)c1cccnc1 [Niacinamide]
Niacinamide penetration, individual columns 1-6 ([1]; Active (weak magnetic field, ETP008, 5 minutes), Tape Strip 1, gel mixture, 30 minutes absorption): 4.463 and 1.099 and 1.021 and 3.47 and 2.739 and 4.647
Niacinamide penetration, individual columns 1-6 ([1]; Active, Tape Strip 2): 1.782 and 0.5649 and 1.07 and 1.211 and 2.226 and 5.364
Niacinamide penetration, individual columns 1-6 ([1]; Active, Tape Strip 3): 1.137 and 0.5147 and 1.116 and 1.035 and 1.694 and 1.226
Niacinamide penetration, individual columns 1-6 ([1]; Active, Tape Strip 4): 0.9888 and 0.7087 and 1.098 and 0.8548 and 0.8425 and 0.7848
Niacinamide penetration, individual columns 1-6 ([1]; Active, Tape Strip 5): 0.9146 and 0.7814 and 0.7495 and 0.8808 and 1.167 and 0.6402
Niacinamide penetration, individual columns 1-6 ([1]; Active, Tape Strip 6): 0.895 and 0.8145 and 0.5287 and 0.8757 and 0.7531 and 0.6777
Niacinamide penetration, individual columns 1-6 ([1]; Active, Tape Strip 7): 0.6261 and 0.5502 and 0.4859 and 0.6321 and 0.6608 and 1.049
Niacinamide penetration, individual columns 1-6 ([1]; Active, Tape Strip 8): 0.4149 and 0.7107 and 0.4741 and 0.5541 and 0.5753 and 0.6739
Niacinamide penetration, individual columns 1-6 ([1]; Active, Tape Strip 9): 0.4666 and 0.5396 and 0.4059 and 0.4627 and 0.4898 and 0.2985
Niacinamide penetration, individual columns 1-6 ([1]; Active, Tape Strip 10): 0.4229 and 0.3982 and 0.3809 and 0.2336 and 0.5187 and 0.3243
Niacinamide penetration, individual columns 1-6 [1, 3]: 2.826 and 3.013 and 2.276 and 2.758 and 2.998 and 3.024
Niacinamide penetration, individual columns 1-6 ([1]; Passive (no weak magnetic field), Tape Strip 1, gel mixture, 30 minutes absorption): 4.785 and 1.997 and 0.8068 and 3.16 and 2.0563 and 1.761
Niacinamide penetration, individual columns 1-6 ([1]; Passive, Tape Strip 2): 1.077 and 0.9778 and 1.464 and 0.9842 and 1.846 and 1.768
Niacinamide penetration, individual columns 1-6 ([1]; Passive, Tape Strip 3): 0.6071 and 0.8166 and 1.131 and 1.06 and 1.456 and 2.085
Niacinamide penetration, individual columns 1-6 ([1]; Passive, Tape Strip 4): 0.4947 and 1.297 and 0.8954 and 0.5456 and 0.8406 and 1.689
Niacinamide penetration, individual columns 1-6 ([1]; Passive, Tape Strip 5): 0.5925 and 0.8516 and 0.935 and 0.6655 and 0.6213 and 1.303
Niacinamide penetration, individual columns 1-6 ([1]; Passive, Tape Strip 6): 0.5736 and 0.5759 and 0.7258 and 0.5432 and 0.6385 and 0.6487
Niacinamide penetration, individual columns 1-6 ([1]; Passive, Tape Strip 7): 0.5936 and 0.4867 and 0.5056 and 0.622 and 0.5467 and 0.9127
Niacinamide penetration, individual columns 1-6 ([1]; Passive, Tape Strip 8): 0.5657 and 0.4006 and 0.4313 and 0.3634 and 0.4878 and 0.5195
Niacinamide penetration, individual columns 1-6 ([1]; Passive, Tape Strip 9): 0.3146 and 0.4048 and 0.4168 and 0.4248 and 0.2422 and 0.3954
Niacinamide penetration, individual columns 1-6 ([1]; Passive, Tape Strip 10): 0.3563 and 0.5215 and 0.2107 and 0.4442 and 0.3186 and 0.5283
Niacinamide penetration, individual columns 1-6 [1, 4]: 2.404 and 2.39 and 2.29 and 2.398 and 2.234 and 3.005

Penetration of Vitamin E into the skin, in words [2]: much greater penetration
Compound: Vitamin E
